Experiment [1] has as its system PDX1 and MafA mRNA. The experiment in a line: qRT-PCR of β cell transcription factors in Tm-treated INS-1 cells. In kind it is cell-based, rat. The following applies: Tm 0.1 μg/mL, 9c 20 μM, 24 h, FIG. 5C, D. The text has this:
ER stress also impairs the most important function of β cells: the biosynthesis and secretion of insulin. Multiple steps of insulin synthesis and secretion are impaired under ER stress; they include insulin gene transcription, insulin mRNA stability, protein translation, and the insulin protein secretory process. First, we examined whether compound 9c could rescue Tm-suppressed mRNA levels of insulin genes. […] Second, we examined whether compound 9c affects the expression of β cell transcription factors PDX1 and MafA, which control β cell identity and the expression of insulin genes. Chronic exposure to supraphysiologic concentrations of glucose and its associated ER stress cause the down-regulation of expression of PDX1 and MafA. Consistent with this notion, Tm decreased the levels of PDX1 and MafA mRNA expression levels in INS-1 cells. […] Next, we explored whether compound 9c re-establishes Tm-impaired glucose-stimulated insulin secretion (GSIS).
INS-1 cells were seeded at 4×10^5 cells/well in 6-well plates and treated with compounds for the indicated times. Total RNA was extracted using TRIzol reagent (Invitrogen, Carlsbad, Calif.) according to the manufacturer's protocol, and 2 μg of total RNA was reverse transcribed using a Superscript kit (Invitrogen). […]

The subject of experiment [2] is XBP1s mRNA. The experiment in a line: XBP1 splicing (qRT-PCR and RT-PCR) in Tm-treated INS-1 cells. In kind it is cell-based, rat. The following applies: Tm 0.1 μg/mL, 9c 20 μM. An excerpt:
Next, we investigated the mechanism by which 9c protects β cells against ER stress. In response to ER stress, all three branches of the UPR, IRE1α, PERK and ATF6, are activated to either restore cellular homeostasis/survival or lead to cell death, depending on the severity of ER stress. First, we asked whether 9c affects the activation of IRE1α in β cells under ER stress. Activated IRE1α cleaves X-box binding protein-1 (XBP1) mRNA to generate a spliced form (XBP1s) that is translated into a potent transcription factor which controls expression of UPR genes encoding factors involved in ER protein folding and degradation. We therefore determined the effect of 9c on IRE1α-mediated XBP1 splicing in INS-1 cells in the presence of Tm.
INS-1 cells were seeded at 4×10^5 cells/well in 6-well plates and treated with compounds for the indicated times. Total RNA was extracted using TRIzol reagent (Invitrogen, Carlsbad, Calif.) according to the manufacturer's protocol, and 2 μg of total RNA was reverse transcribed using a Superscript kit (Invitrogen). Real-time PCR was performed in 96-well format using SYBR Select Master Mix (Applied Biosystems, Foster City, Calif.) with an ABI 7500 PCR system (Applied Biosystems). The primer sequences used are shown in U.S. Ser. No. 62/542,408, Aug. 8, […].

Experiment [3] has as its system βTC6 cells. Description: βTC6 cell viability after Tm treatment (MTT). In kind it is cell-based. The note with it: Tm 0.25 μg/mL, 72 h, FIG. 3C. The text has this: (§1) To rule out the possibility of an ATP-specific (rather than viability) effect of the compounds, we used the MTT assay, which measures the activity of NAD(P)H-dependent cellular oxidoreductase enzymes, as an orthogonal method to measure cell viability. […] To confirm that the protective effect of 9c on β cells is not INS-1 cell-specific, another β cell line, βTC6, was used. […] To determine whether the protective effect of 9c on β cells is specific to Tm-induced stress, we used another ER stressor, BFA, which inhibits a key guanine nucleotide exchange factor essential for the transport of proteins from the ER to the Golgi, to treat INS-1 cells.
(§2) INS-1 cells or βTC6 cells were seeded at 3×10^3 cells/well in a 384-well plate and treated with compounds at the indicated concentrations. After 3 d treatment, the medium was aspirated and 10 μl of MTT reagent (Cayman Chemical, MI, USA, prepared according to manufacturer's instruction) to each well was added and mixed gently for one minute on an orbital shaker. The cells were then incubated for three hours at 37° C. in a CO2 incubator. After incubation, add 100 μl of crystal dissolving solution to each well, and incubate for 4 hours in a 37° C. CO2 incubator. Viability will be measured for the absorbance to each sample at 570 nm using EnVision multilabel plate reader (PerkinElmer, MA, USA).

In experiment [4] the test system is INS-1 cells. Description: MTT viability assay, INS-1 cells treated with Tm. In kind it is cell-based, rat. The note with it: Tm 0.1 μg/mL, 72 h, FIG. 3A.
From the text: as §1, §2
On the technique in general: Formazan colour is commonly taken as a measure of viable cells.

Experiment [5] has as its system INS-1 cells. Description: Live-cell phase-contrast images of Tm-treated INS-1 cells. Type of experiment: cell-based, rat. The following applies: Tm 0.1 μg/mL, 9c 20 μM, 24 h, FIG. 4B. As for the experimental part:
(A) INS-1 cells were treated with or without Tm (0.1 μg/mL) in the presence of 9c (20 μM) or DMSO for the indicated times. Cleaved caspase-3 and PARP were determined by Western blotting. A-Tubulin was used as a loading control. The data shown are representative of 3 independent experiments. (B) INS-1 cells were treated with or without Tm (0.1 μg/mL) in the presence of 9c (20 μM) or DMSO for 24 h, and live-cell phase-contrast images were acquired (magnification 10×).
To determine whether the increase in cell viability following treatment with 9c was caused by a suppression of apoptotic cell death, levels of cleaved caspase-3 and cleaved PARP were assessed by Western blotting. Caspase-3, a member of executioner caspases, plays essential roles in initiating apoptotic signaling and executing the final stages of cell death as it is responsible for the proteolytic cleavage of many key proteins, such as the nuclear enzyme poly (ADP-ribose) polymerase (PARP) which is a family of proteins involved in a number of cellular processes involving DNA repair and cell death. […] However, upon severe ER stress, caspase 3 undergoes proteolytic cleavage to produce two subunits that dimerize to form the active enzyme, which in turns cleaves PARP.

Experiment [6] concerns INS-1 cells. Description: INS-1 cell survival after Tm treatment (CellTiter-Glo, intracellular ATP). In kind it is cell-based, rat. The following applies: for EC50: Rattus norvegicus, read-out: EC50. Here is the method: A structure-activity-relationship (SAR) study was thus conducted to improve the weak potency of lead compound 5a. Newly synthesized or commercially available compounds were tested for their β-cell-protective activity against ER stress in rat INS-1 β-cells. […] Maximum activity value in the tables is reported as % rescue from Tm (0.1 μg/mL)-induced reduction of cell viability. The values for Tm treatment alone and control (DMSO, without Tm) treatment are designated as 0% and 100%, respectively in all tables. EC50 values (the concentrations that reach half-maximal activity) for INS-1 cell viability were calculated with GraphPad Prism from the data of ten 2-fold serial titration points in all tables. All experiments were performed in triplicate in all tables.
INS-1 cells or βTC6 cells were seeded at 3×10^3 cells/well in a 384-well plate and treated with compounds at the indicated concentrations. After 3 d treatment, the medium was aspirated and 20 μL/well of CellTiter-Glo reagent (Promega, WI, USA) was added for the detection of intracellular ATP levels. Cell viability was measured with an EnVision multilabel plate reader (PerkinElmer, MA, USA).
(In general: In ATP-based viability assays light output follows the ATP content of the culture.)

Read-outs that look alike come from different tables or passages of the source.

One may read the EC50 as the concentration that produces a half-maximal response.

Turning to `COc1ccc(CNc2nc(N3CCCCC3CO)nc3ccccc23)cc1` (racemic) [Compound 9c, (1-(4-((4-methoxybenzyl)amino)quinazolin-2-yl)piperidin-2-yl)methanol], in experiment [1], the “PDX1 and MafA mRNA expression levels” value was “almost completely reversed this decrease to normal levels”. Moreover, the “XBP1s mRNA (qRT-PCR)” value in experiment [2] (FIG. 6A) was “suppressed”. In addition, the “XBP1s mRNA (RT-PCR, electrophoretic separation of spliced and unspliced forms)” value in experiment [2] (FIG. 6B) is reported as “inhibits the Tm-induced generation of XBP1s mRNA”. In addition, the “viability of βTC6 cells (MTT, NAD(P)H-dependent oxidoreductase activity)” value in experiment [3] was “rescued the viability of βTC6 cells in a dose-dependent manner”. For the same compound, the “viability of INS-1 cells (MTT)” value in experiment [4] is on record as “increase in viability of INS-1 cells”. In addition, the “viable cells observed (phase-contrast)” value in experiment [5] is “significantly more viable cells”. Also, the Maximum activity in experiment [6] (% rescue from Tm (0.1 μg/mL)-induced reduction of cell viability, 72 h, Tm alone 0%, DMSO 100%, Table 3) came to 80.4%. Moreover, the “maximum activity (rescue)” value in experiment [6] (% rescue from Tm-induced reduction of INS-1 cell viability) was 80%. In experiment [6] (INS-1 cells, Tm 0.1 μg/mL, 72 h, based on dose-dependent curves), the “concentration exhibiting the maximum protective activity” value is 5 µM. Further, the EC50 in experiment [6] (INS1, 72 h, INS-1 cell viability, Tm 0.1 μg/mL, 72 h, ten 2-fold serial titration points, Table 3) came to 0.56 ± 0.18 µM; in experiment [6] (INS1, running text, INS-1 cell viability in presence of Tm), 0.56 µM.

The values above are taken from patent US10815219B2, “2,4-diaminoquinazoline derivatives for inhibiting endoplasmic reticulum (ER) stress” (The Board of Regents of the University of Oklahoma, priority 2017, dated 2020).
